{"source": "patent US20230143545A1", "about": "“Treating Pulmonary Inflammatory Disease Associated With Covid-19 By Administering Resiniferatoxin” (Sorrento Therapeutics, Inc., priority 2020, published 2023)", "key": {"Bleo-exposed rats [1]": {"test_system": "Bleo-exposed rats", "test": "Plasma cytokine ELISA in rat model of bleomycin lung injury", "assay_type": "in vivo", "details": "epidural RTX at day 3 after Bleo; day 7", "protocol": "Rat Model of Lung Injury.\nEpidural Application of RTX.\nCytokine Assays. […] Organ weights were evaluated post-mortem."}, "Bleo-exposed rats [2]": {"test_system": "Bleo-exposed rats", "test": "Lung plasma extravasation (Evans Blue) in rat model of bleomycin lung injury", "details": "day 7", "quoted_text": "(§1) Rat Model of Lung Injury. Rats were randomized into three groups and evaluated at 1-week post-instillation as follows: sham rats, bleomycin (Bleo)-exposed rats with saline (epidural or intra-stellate injection), and Bleo-exposed rats with RTX (epidural or intra-stellate injection). Bleo (2.5 mg/kg, —0.15 mL) was instilled intra-tracheally to the lungs under 3% isoflurane anesthesia. Sham control rats underwent intra-tracheal instillation of saline. Animals were treated with RTX or vehicle (Veh; phosphate buffered saline) by either the epidural T1-T4 DRGs route (6 μg/ml, 10 μl/per ganglia) or intra-stellate ganglia administration (50μg/ml, 5 μl/per side) 3 days following Bleo delivery (FIG. 1A-B).\nEpidural Application of RTX. The upper thoracic spinal afferents were ablated by epidural application of RTX. […] Briefly, rats were anesthetized using 2%-3% isoflurane:oxygen mixture. Rats were placed in the prone position and a small midline incision was made in the region of the T13-L1 thoracic vertebrae. Following dissection of the superficial muscles, two small holes (approximately 2 mm×2 mm) were made in the left and right sides of T13 vertebrae. A polyethylene catheter (PE-10) was inserted into the subarachnoid space via one hole and gently advanced about 4 cm approximating the T1 level. The upper thoracic sympathetic afferent ganglia were ablated by injecting resiniferatoxin (RTX; Sigma Aldrich), an ultra-potent agonist of the TRPV1 receptor into the subarachnoid space via the catheter. RTX (1 mg; Sigma Aldrich) was dissolved in a 1:1:8 mixture of ethanol, Tween 80 (Sigma-Aldrich), and isotonic saline. The first injection of RTX (6 μg/ml, 10 ul) was made at a very slow speed (˜1 minute) to minimize the diffusion of the drug. The catheter was then pulled back to T2, T3 and T4, respectively to perform serial injections (10 μl/each) at each segment. The catheter was withdrawn and the same injections were repeated on the other side. Silicone gel was used to seal the hole in the T13 vertebra. […]\nLung Plasma Extravasation, Tissue Extraction, and Quantification of Evans Blue. […]"}, "Bleo-exposed rats [3]": {"test_system": "Bleo-exposed rats", "test": "Arterial blood gas analysis in rat model of bleomycin lung injury", "details": "intra-stellate RTX at day 3 after Bleo; day 7; vs. Bleo+Veh", "quoted_text": "as §1\nIntra-stellate Injection of RTX Rats were anesthetized using 2%-3% isoflurane:oxygen mixture. […] The skin from the rostral end of the sternum to the level of third rib was incised. Portions of the superficial and deep pectoral muscles and the first intercostal muscles were cut and dissected. To localize the left or right stellate ganglion, the left or right precava vein were separated with a hooked glass or steel rod laterally away from the brachiocephalic artery to expose the internal thoracic artery and the costocervical artery, which are descending branches of the right subclavian artery. Stellate ganglia and ansa subclavia are located medially to the origins of the internal thoracic and costocervical arteries. Then, RTX (5 μl, 50 mg/ml) was injected into the ganglia with a 5-μl Hamilton syringe (Microliter #95, Hamilton, Reno, Nev., USA.) over 30 s bilaterally. An image of this procedure is shown in FIG. 2A-B. Following these maneuvers, the thorax between the first and second intercostal spaces was closed with continuous 4-0 Dexon II coated braided absorbable polyglycolic acid suture and the skin was closed with 3-0 polypropylene suture and the chest evacuated. […]\n(§2) Statistics. Statistical evaluation was analyzed using GraphPad Prism (GraphPad Software, San Diego, Calif. Version 8). Differences between treatments were determined using a Mixedeffects model for repeated-measures ANOVA. […]"}, "Bleo-exposed rats [4]": {"test_system": "Bleo-exposed rats", "test": "Body weight and organ weights post-mortem in rat model of bleomycin lung injury", "quoted_text": "as §1\nIntra-stellate Injection of RTX Rats were anesthetized using 2%-3% isoflurane:oxygen mixture. […] The skin from the rostral end of the sternum to the level of third rib was incised. Portions of the superficial and deep pectoral muscles and the first intercostal muscles were cut and dissected. To localize the left or right stellate ganglion, the left or right precava vein were separated with a hooked glass or steel rod laterally away from the brachiocephalic artery to expose the internal thoracic artery and the costocervical artery, which are descending branches of the right subclavian artery. Stellate ganglia and ansa subclavia are located medially to the origins of the internal thoracic and costocervical arteries. Then, RTX (5 μl, 50 mg/ml) was injected into the ganglia with a 5-μl Hamilton syringe (Microliter #95, Hamilton, Reno, Nev., USA.) over 30 s bilaterally. […]\nas §2"}, "Bleo-exposed rats [5]": {"test_system": "Bleo-exposed rats", "test": "Lung tissue cytokine ELISA in rat model of bleomycin lung injury", "details": "day 7", "quoted_text": "as §1\nEpidural Application of RTX. The upper thoracic spinal afferents were ablated by epidural application of RTX. […] Briefly, rats were anesthetized using 2%-3% isoflurane:oxygen mixture. Rats were placed in the prone position and a small midline incision was made in the region of the T13-L1 thoracic vertebrae. Following dissection of the superficial muscles, two small holes (approximately 2 mm×2 mm) were made in the left and right sides of T13 vertebrae. A polyethylene catheter (PE-10) was inserted into the subarachnoid space via one hole and gently advanced about 4 cm approximating the T1 level. The upper thoracic sympathetic afferent ganglia were ablated by injecting resiniferatoxin (RTX; Sigma Aldrich), an ultra-potent agonist of the TRPV1 receptor into the subarachnoid space via the catheter. RTX (1 mg; Sigma Aldrich) was dissolved in a 1:1:8 mixture of ethanol, Tween 80 (Sigma-Aldrich), and isotonic saline. The first injection of RTX (6 μg/ml, 10 ul) was made at a very slow speed (˜1 minute) to minimize the diffusion of the drug. The catheter was then pulled back to T2, T3 and T4, respectively to perform serial injections (10 μl/each) at each segment. The catheter was withdrawn and the same injections were repeated on the other side. Silicone gel was used to seal the hole in the T13 vertebra. The skin overlying the muscle were closed with a 3-0 polypropylene simple interrupted suture, and betadine was applied to the wound. For post-procedure pain management, buprenorphine (0.05 mg/kg) was subcutaneously injected immediately after surgery and twice daily for 2 days.\nIntra-stellate Injection of RTX Rats were anesthetized using 2%-3% isoflurane:oxygen mixture. […] The skin from the rostral end of the sternum to the level of third rib was incised. Portions of the superficial and deep pectoral muscles and the first intercostal muscles were cut and dissected. To localize the left or right stellate ganglion, the left or right precava vein were separated with a hooked glass or steel rod laterally away from the brachiocephalic artery to expose the internal thoracic artery and the costocervical artery, which are descending branches of the right subclavian artery. Stellate ganglia and ansa subclavia are located medially to the origins of the internal thoracic and costocervical arteries. Then, RTX (5 μl, 50 mg/ml) was injected into the ganglia with a 5-μl Hamilton syringe (Microliter #95, Hamilton, Reno, Nev., USA.) over 30 s bilaterally. […] Betadine was applied to the wound and the rats were allowed to recover from the anesthesia. […]\nCytokine Assays. Lung and plasma cytokines were measured with R&D cytokine ELISA assays (Minneapolis, Minn., USA) according to the manufacturer's instructions."}, "[6]": {"details": "intra-stellate RTX at day 3 after Bleo, day 7, vs. Bleo+Veh"}, "[7]": {"details": "epidural RTX at day 3 after Bleo, vs. Bleo"}, "[8]": {"details": "stellate RTX at day 3 after Bleo, vs. Bleo+Veh"}}, "note": "“Also recorded” adds a separate entry of the source.", "data": [{"smiles": "C=C(C)[C@]12C[C@@H](C)[C@@]34O[C@](Cc5ccccc5)(O[C@@H]1[C@@H]3C=C(COC(=O)Cc1ccc(O)c(OC)c1)C[C@]1(O)C(=O)C(C)=C[C@@H]41)O2", "note": "[RTX, resiniferatoxin]", "values": [{"measurement": "Plasma cytokine levels in response to Bleo", "setting": "Bleo-exposed rats [1]", "result": "reduced"}, {"measurement": "Plasma extravasation (Evans Blue areas / concentration in lung)", "setting": "Bleo-exposed rats [2]; epidural RTX T1-T4 (6 μg/ml, 10 μl/per ganglia) at day 3 after Bleo 2.5 mg/kg intra-tracheal, vs. Bleo", "result": "reduced"}, {"measurement": "Plasma extravasation (Evans Blue dye in the lung)", "setting": "Bleo-exposed rats [2]; intra-stellate RTX (50μg/ml, 5 μl/per side) at day 3 after Bleo, vs. Bleo+Veh", "result": "marked reduction; also recorded: reduced"}, {"measurement": "Arterial pCO2 (elevated by Bleo)", "setting": "Bleo-exposed rats [3]", "result": "reversed these changes"}, {"measurement": "Arterial pO2 (reduced by Bleo)", "setting": "Bleo-exposed rats [3]", "result": "reversed these changes"}, {"measurement": "Arterial sO2 (reduced by Bleo)", "setting": "Bleo-exposed rats [3]", "result": "reversed these changes"}, {"measurement": "Ratio of WLW to BW", "setting": "Bleo-exposed rats [4]; [6]", "result": "significantly reduced"}, {"measurement": "Wet lung weight (WLW)", "setting": "Bleo-exposed rats [4]; [6]", "result": "significantly reduced"}, {"measurement": "Body weight", "setting": "Bleo-exposed rats [4]; stellate ganglia administration of RTX in rats with lung injury", "result": "improved"}, {"measurement": "Lung tissue IFNγ level", "setting": "Bleo-exposed rats [5]; [7]", "result": "reduced"}, {"measurement": "Lung tissue IL-1β level", "setting": "Bleo-exposed rats [5]; [7]", "result": "reduced"}, {"measurement": "Lung tissue IL-6 level", "setting": "Bleo-exposed rats [5]; [7]", "result": "reduced"}, {"measurement": "Lung tissue IL-1β level", "setting": "Bleo-exposed rats [5]; [8]", "result": "significantly reduced"}, {"measurement": "Lung tissue IL-6 level", "setting": "Bleo-exposed rats [5]; [8]", "result": "significantly reduced"}]}]}
